Measurements as given in the NIST ThermoML archive (doi:10.1016/j.jct.2017.03.016).
± gives the expanded uncertainty stated by the source.

Columns and labels:
[1] = wn = mass fraction of the nth substance listed; conditions: for surface tension liquid-gas: Maximal bubble pressure; for mass density: 100 kPa, Liquid, Vibrating tube method
[2] = refractive index (Na D-line) (dimensionless); wn = mass fraction of the nth substance listed; conditions: 100 kPa, Liquid, Standard Abbe refractometry

CCn1cc[n+](CCOC)c1.N#C[N-]C#N [1-ethyl-3-(2-methoxyethyl)imidazolium dicyanamide] + O
Conditions	mass density, [1] [kg/m3]	refractive index, [2]	surface tension liquid-gas, [1] [mN/m]
298.15 K, w2 = 0.00031	–	–	51.1 ± 0.5
298.15 K, w2 = 0.00148	1113.35 ± 2.3	1.5049 ± 0.0031	–
298.15 K, w2 = 0.00175	–	–	51.3 ± 0.5
298.15 K, w2 = 0.00277	1113.18 ± 2.3	1.5045 ± 0.0031	–
298.15 K, w2 = 0.00317	–	–	51.7 ± 0.5
298.15 K, w2 = 0.00434	1112.96 ± 2.3	1.5041 ± 0.0031	–
298.15 K, w2 = 0.00461	–	–	52 ± 0.5
298.15 K, w2 = 0.0055	1112.77 ± 2.3	1.5037 ± 0.0031	–
298.15 K, w2 = 0.00609	–	–	52.3 ± 0.5
298.15 K, w2 = 0.00719	1112.46 ± 2.3	1.5033 ± 0.0031	–
303.15 K, w2 = 0.00031	–	–	50.8 ± 0.5
303.15 K, w2 = 0.00148	1109.96 ± 2.3	1.5036 ± 0.0031	–
303.15 K, w2 = 0.00175	–	–	51.1 ± 0.5
303.15 K, w2 = 0.00277	1109.78 ± 2.3	1.5032 ± 0.0031	–
303.15 K, w2 = 0.00317	–	–	51.4 ± 0.5
303.15 K, w2 = 0.00434	1109.57 ± 2.3	1.5028 ± 0.0031	–
303.15 K, w2 = 0.00461	–	–	51.7 ± 0.5
303.15 K, w2 = 0.0055	1109.37 ± 2.3	1.5024 ± 0.0031	–
303.15 K, w2 = 0.00609	–	–	52 ± 0.5
303.15 K, w2 = 0.00719	1109.06 ± 2.3	1.5019 ± 0.0031	–
308.15 K, w2 = 0.00031	–	–	50.5 ± 0.5
308.15 K, w2 = 0.00148	1106.58 ± 2.3	1.5024 ± 0.0031	–
308.15 K, w2 = 0.00175	–	–	50.8 ± 0.5
308.15 K, w2 = 0.00277	1106.41 ± 2.3	1.5019 ± 0.0031	–
308.15 K, w2 = 0.00317	–	–	51.1 ± 0.5
308.15 K, w2 = 0.00434	1106.19 ± 2.3	1.5015 ± 0.0031	–
308.15 K, w2 = 0.00461	–	–	51.4 ± 0.5
308.15 K, w2 = 0.0055	1106 ± 2.3	1.501 ± 0.0031	–
308.15 K, w2 = 0.00609	–	–	51.7 ± 0.5
308.15 K, w2 = 0.00719	1105.69 ± 2.3	1.5006 ± 0.0031	–
313.15 K, w2 = 0.00031	–	–	50.2 ± 0.5
313.15 K, w2 = 0.00148	1103.23 ± 2.3	1.5012 ± 0.0031	–
313.15 K, w2 = 0.00175	–	–	50.5 ± 0.5
313.15 K, w2 = 0.00277	1103.05 ± 2.3	1.5007 ± 0.0031	–
313.15 K, w2 = 0.00317	–	–	50.8 ± 0.5
313.15 K, w2 = 0.00434	1102.83 ± 2.3	1.5002 ± 0.0031	–
313.15 K, w2 = 0.00461	–	–	51.1 ± 0.5
313.15 K, w2 = 0.0055	1102.64 ± 2.3	1.4996 ± 0.0031	–
313.15 K, w2 = 0.00609	–	–	51.4 ± 0.5
313.15 K, w2 = 0.00719	1102.33 ± 2.3	1.4992 ± 0.0031	–
318.15 K, w2 = 0.00031	–	–	49.9 ± 0.5
318.15 K, w2 = 0.00148	1099.89 ± 2.3	1.4996 ± 0.0031	–
318.15 K, w2 = 0.00175	–	–	50.2 ± 0.5
318.15 K, w2 = 0.00277	1099.72 ± 2.3	1.4992 ± 0.0031	–
318.15 K, w2 = 0.00317	–	–	50.5 ± 0.5
318.15 K, w2 = 0.00434	1099.5 ± 2.3	1.4987 ± 0.0031	–
318.15 K, w2 = 0.00461	–	–	50.8 ± 0.5
318.15 K, w2 = 0.0055	1099.3 ± 2.3	1.4982 ± 0.0031	–
318.15 K, w2 = 0.00609	–	–	51.1 ± 0.5
318.15 K, w2 = 0.00719	1098.99 ± 2.3	1.4979 ± 0.0031	–
323.15 K, w2 = 0.00031	–	–	49.6 ± 0.5
323.15 K, w2 = 0.00148	1096.58 ± 2.3	1.4984 ± 0.0031	–
323.15 K, w2 = 0.00175	–	–	49.9 ± 0.5
323.15 K, w2 = 0.00277	1096.4 ± 2.3	1.498 ± 0.0031	–
323.15 K, w2 = 0.00317	–	–	50.2 ± 0.5
323.15 K, w2 = 0.00434	1096.18 ± 2.3	1.4975 ± 0.0031	–
323.15 K, w2 = 0.00461	–	–	50.6 ± 0.5
323.15 K, w2 = 0.0055	1095.98 ± 2.3	1.497 ± 0.0031	–
323.15 K, w2 = 0.00609	–	–	50.8 ± 0.5
323.15 K, w2 = 0.00719	1095.66 ± 2.3	1.4965 ± 0.0031	–
328.15 K, w2 = 0.00031	–	–	49.4 ± 0.5
328.15 K, w2 = 0.00148	1093.27 ± 2.3	1.4971 ± 0.0031	–
328.15 K, w2 = 0.00175	–	–	49.7 ± 0.5
328.15 K, w2 = 0.00277	1093.1 ± 2.3	1.4966 ± 0.0031	–
328.15 K, w2 = 0.00317	–	–	50 ± 0.5
328.15 K, w2 = 0.00434	1092.88 ± 2.3	1.496 ± 0.0031	–
328.15 K, w2 = 0.00461	–	–	50.4 ± 0.5
328.15 K, w2 = 0.0055	1092.68 ± 2.3	1.4955 ± 0.0031	–
328.15 K, w2 = 0.00609	–	–	50.6 ± 0.5
328.15 K, w2 = 0.00719	1092.36 ± 2.3	1.4949 ± 0.0031	–
333.15 K, w2 = 0.00031	–	–	49.1 ± 0.5
333.15 K, w2 = 0.00148	1090 ± 2.3	1.4954 ± 0.0031	–
333.15 K, w2 = 0.00175	–	–	49.5 ± 0.5
333.15 K, w2 = 0.00277	1089.82 ± 2.3	1.495 ± 0.0031	–
333.15 K, w2 = 0.00317	–	–	49.8 ± 0.5
333.15 K, w2 = 0.00434	1089.59 ± 2.3	1.4945 ± 0.0031	–
333.15 K, w2 = 0.00461	–	–	50.1 ± 0.5
333.15 K, w2 = 0.0055	1089.4 ± 2.3	1.4939 ± 0.0031	–
333.15 K, w2 = 0.00609	–	–	50.4 ± 0.5
333.15 K, w2 = 0.00719	1089.08 ± 2.3	1.4934 ± 0.0031	–
338.15 K, w2 = 0.00031	–	–	48.8 ± 0.5
338.15 K, w2 = 0.00148	1086.74 ± 2.3	1.4941 ± 0.0031	–
338.15 K, w2 = 0.00175	–	–	49.2 ± 0.5
338.15 K, w2 = 0.00277	1086.56 ± 2.3	1.4935 ± 0.0031	–
338.15 K, w2 = 0.00317	–	–	49.5 ± 0.5
338.15 K, w2 = 0.00434	1086.33 ± 2.3	1.4929 ± 0.0031	–
338.15 K, w2 = 0.00461	–	–	49.8 ± 0.5
338.15 K, w2 = 0.0055	1086.13 ± 2.3	1.4923 ± 0.0031	–
338.15 K, w2 = 0.00609	–	–	50.1 ± 0.5
338.15 K, w2 = 0.00719	1085.81 ± 2.3	1.4919 ± 0.0031	–
